Patent US12202804B2, “In vitro or ex vivo methods for screening a quinoline derivative” (ABIVAX, priority 2014, dated 2025)

Assays:
miR-124 = assay: Modulation of miR-124 expression in PBMCs (qPCR, relative quantification); assay type: cell-based, human; conditions: for fold induction at 5 µM / fold induction at 10 µM: Homo sapiens, PBMC, 144 h, read-out: Fold-change compared to DMSO treated cells (Relative quantification) Mean; for fold induction at 5 µM / fold induction at 10 µM / Fold-change compared to DMSO treated cells (Relative quantification) Mean: miR-124 expression, PBMCs of healthy donors; for fold induction at 5 µM: quinoline derivatives 5 μM, extraction day 6, mean over 1 to 7 donors; for fold induction at 10 µM / Fold-change compared to DMSO treated cells (Relative quantification) Mean: antiretroviral drugs 10 μM, extraction day 6, 4 donors; for effect on the overexpression of miR-124 in PBMCs: known antiretrovirals, PBMCs from four donors
Procedure: Briefly, 60-70 mL of buffy-coat are poured in a flask of 175 cm^2, and the volume is adjusted to 300 mL using PBS in order to obtain a dilution of about 5-fold of the buffy coat. […] The lymphocyte ring is recovered from the Falcon™ tube with a transfer pipette (Pastette®) and then washed with PBS using centrifugation for 10 minutes at 290 rcf and at ambient temperature until the supernatant becomes clear.
Cells are incubated for 48 hours at 37° C. under 5% CO2.
Six-well plates are used for the screening. Within each well comprising 3.10^6 cell/4 ml RPMI supplemented with 10% fetal calf serum and 40 U/mL IL-2 (Peprotech Ref 200-02) are added screened molecules. 100% DMSO (4 μL) is added to the well and tested as a negative control.
Each tested condition is set up as described here below and the final corresponding volume is adjusted accordingly in the well: • 1) Quinoline derivatives in 100% DMSO—(5 μM and final volume 4 μL) • 2) Antiretroviral drugs: Maraviroc, Efavirenz, Darunavir, AZT (10 μM for all—final volume 4 μL).
The wells are incubated for three days at 37° C. under 5% CO2 Medium is changed (Day 3) according to standard protocols. Briefly, plates are centrifugated at 290 rcf for 5 minutes and 3 mL of supernatant is removed. 3 mL of RPMI supplemented with 10% fetal calf serum and 40 U/mL IL-2 is then added with 3 μL of a stock solution of screened molecule at 5 mM in 100% DMSO or 3 μL of 100% DMSO as a negative control.
Cells are recovered within Falcon™ tubes of 15 mL, centrifugated at 290 rcf for 5 minutes, and then washed in 10 mL PBS and further centrifugated at 290 rcf for 5 minutes. Cells are then resuspended in 1 mL PBS and counted.
6×10^6 cells are recovered and centrifugated at 290 rcf for 5 minutes.
The miRNA extraction is achieved using the protocol from Macherey Nagel Nucleospin® miRNA extraction kit using an elution volume for RNAs of 50 μL and miRNAs of 30 μL, and further stored at −20° C.
The reverse transcription step is followed for 12 μL of miRNA using the miScript RT II reverse transcription (RT) kit from QIAGEN© using the miScript HiSpec buffer, and further stored at −20° C.
The quantitative PCR step is achieved using the QIAGEN© miScript SYBR® Green PCR kit and miScript Primer Assays according to the manufacturer's protocol.
The reaction is repeated in triplicates in a 384-well plate according to the manufacturer's protocol on a LightCycler® […] Roche Real-Time PCR system. Cycling conditions are also set up according to the manufacturer's protocol: […]

[1] = tested on: (DSS-) induced colitis model; assay: Dextran Sulphate Sodium (DSS-) induced colitis mouse model; assay type: in vivo, C57BL/6 mice
Procedure: A commonly used mouse model of inflammatory bowel disease is the Dextran Sulphate Sodium (DSS-) induced colitis model. Typical histological changes of acute DSS-colitis are mucin depletion, epithelial degeneration and the eventual destruction of the mucosal barrier which leads to inflammation and colitis.
Three groups of 6-week-old C57BL/6 mice (8 mice each) received DSS administration in the drinking water (2.5%) for 9 days (FIGS. 1-2). Weight loss and water consumption was measured every day. The latter was determined by measuring the volume loss of the drinking water in the respective devices. The mice were treated by gavage with 200 ul of 0.5 MC alone (DSS+MC group) or together with 40 mg/kg of compound 24 (DSS+MC+24 group). At the point when control mice have loosed up to 20% of their weight (DSS), the treatment with DSS is stopped and replaced with drinking water. The other treatments were continued for 21 days.
Three groups of 16-week-old C57BL/6 mice (7 mice each) received 2.5% DSS in drinking water (FIG. 3). The mice were treated by gavage with 200 ul of 0.5 MC alone (DSS+MC group) or together with 40 mg/kg of compound 24 (DSS+MC+24 group). The mice were treated with DSS for 6 days and at the point when control mice have loosed up to 15% of their weight (DSS), all the mice were euthanized and colon were taken for further analyses.
Colons were measured using a ruler and for histological analysis the entire colon was prepared according to the Swiss roll procedure (Whittem el al.; “Murine Colitis Modeling using Dextran Sulfate Sodium (DSS)”, J Vis Exp 2010 (35) 1652) fixed with formaldehyde and embedded in paraffin. 4 μm sections were de-paraffinized and stained with hematoxylin and eosin and analyzed for lesion size and other alterations (FIGS. 4-6). We compared untreated and treated mice during the DSS-cycle with quinoline derivatives suspended in methylcellulose or methylcellulose (MC) only. Statistical analysis was performed using Mann-Whitney test, asterisk indicates a significant difference ([…]), two asterisks indicate a very significant difference ([…])

[2] = tested on: Collagen induced arthritis model; assay: Collagen induced arthritis mouse model; assay type: in vivo, DBA/1 mice
Procedure: Groups of 9 to -10-week-old DBA/1 mice were immunized intradermally with bovine collagen type II emulsified in a 1:1 proportion with complete Freund's adjuvant. Mice were challenged 21 days after the first immunization and the phenotypic appearance of arthritis was evaluated by monitoring every second day the thickness of each hind paw ankle joint thickness was measured using a dial caliper (0- to 10-mm) test gauge using a thickness gage. Mice were treated daily for two weeks with quinoline derivatives candidates suspended in methylcellulose or methylcellulose (MC) only and the development of the disease was then monitored. Statistical analysis was performed using Mann-Whitney test, asterisk indicates a significant difference ([…]).

| Compound | fold induction at 5 µM (miR-124) | also measured |
| --- | --- | --- |
| FC(F)(F)Oc1ccc(Oc2ccc3cccc(Cl)c3n2)cc1 [Compound 48, 8-chloro-2-(4-(trifluoromethoxy)phenoxy)quinoline] | 24 | – |
| Nc1cc(OC(F)(F)F)ccc1Nc1ccc2cccc(Cl)c2n1 [Compound 25] | 14.3 | – |
| COc1ccc(Nc2ccc3cccc(Cl)c3n2)cc1 [Compound 23] | 45.1 | – |
| Cc1ccnc(Nc2ccc3cccc(Cl)c3n2)c1 [Compound 1] | 32 | – |
| CC(C)CN(C[C@@H](O)[C@H](Cc1ccccc1)NC(=O)O[C@H]1CO[C@H]2OCC[C@H]21)S(=O)(=O)c1ccc(N)cc1 [Darunavir, reference compound] | – | fold induction at 10 µM (miR-124): 1.08; effect on the overexpression of miR-124 in PBMCs (miR-124): none of the known antiretroviral (Maraviroc, Effavirenz, Darunavir or AZT) has any significant effect |
| FC(F)(F)c1ccc(Nc2ccc3cccc(Cl)c3n2)nc1 [Compound 2] | 66.7 | – |
| Clc1cccc2ccc(Nc3cnccn3)nc12 [Compound 45] | 34.2 | – |
| O=C1Nc2ccc(Cl)cc2[C@@](C#CC2CC2)(C(F)(F)F)O1 [Effavirenz, Efavirenz, reference compound] | – | fold induction at 10 µM (miR-124): 0.46; effect on the overexpression of miR-124 in PBMCs (miR-124): none of the known antiretroviral (Maraviroc, Effavirenz, Darunavir or AZT) has any significant effect |
| Nc1ccc(Cl)c2nc(Nc3ccc(OC(F)(F)F)c(Cl)c3)ccc12 [Compound 26] | 6.13 | – |
| FC(F)(F)c1ccnc(Nc2cc(NCCN3CCOCC3)c3cccc(Cl)c3n2)c1 [Compound 11, 8-chloro-N^4-(2-morpholinoethyl)-N^2-(4-(trifluoromethyl)pyridin-2-yl)quinoline-2,4-diamine] | 17.4 | – |
| CN(c1cc(C(F)(F)F)ccn1)c1ccc2cccc(Cl)c2n1 [Compound 10, 8-chloro-N-methyl-N-(4-(trifluoromethyl)pyridin-2-yl)quinolin-2-amine] | 21.1 | – |
| Cc1ccnc(Nc2ccc3cccc(Cl)c3n2)c1N [Compound 4] | 24.4 | – |
| Cc1cc2c(N)ccc(Cl)c2nc1Nc1ccc(OC(F)(F)F)c(Cl)c1 [Compound 27] | 1.42 | – |
| FC(F)(F)c1ccnc(Nc2ccc3c(OCCCN4CCCCC4)ccc(Cl)c3n2)c1 [Compound 8, 8-chloro-5-(3-(piperidin-1-yl)propoxy)-N-(4-(trifluoromethyl)pyridin-2-yl)quinolin-2-amine] | 7.97 | – |
| FC(F)(F)Oc1ccc(Nc2ccc3cccc(Cl)c3n2)cc1 [Compound 24, 8-chloro-N-[4-(trifluoromethoxy)phenyl]quinolin-2-amine] | 32.5 | weight loss in average ([1]; after 5 days of DSS-administration, 40 mg/kg by gavage in MC, MC or untreated mice 10% to 20%): < 1%; alterations in lymphoid organs such as Peyer's Patches ([1]; after two DSS-cycles): decrease of alterations in lymphoid organs such as Peyer's Patches; average size of the lesion area ([1]; colon histology (FIG. 5), versus 8.4 in MC only treated mice): 2.1 mm^2; number of lesions ([1]; colon histology, compared between cohorts (FIG. 4)): comparable number of lesions; water consumption ([1]; drug treated mice, DSS model, 40 mg/kg by gavage): higher water consumption; average size of the lesion area ([1]; mice exposed to two DSS-cycles, vs 12.2 in MC only treated mice): 3.8 mm^2; weight loss during the second administration of DSS ([1]; second cycle of DSS, 40 mg/kg by gavage): significantly control weight loss; swelling of joints ([2]; hind paw ankle joint thickness, MC only treated about 2.2 mm (FIG. 6)): 1.9 mm; mice that displayed signs of inflammation ([2]; treated daily for two weeks, 8 out of 10 MC treated mice developed disease): one out of ten |
| Fc1ccc(Nc2ccc3cccc(Cl)c3n2)nc1 [Compound 3] | 48.5 | – |
| CN(c1ccc(OC(F)(F)F)cc1)c1ccc2cccc(Cl)c2n1 [Compound 28, 8-chloro-N-methyl-N-(4-(trifluoromethoxy)phenyl)quinolin-2-amine] | 22.2 | – |
| FC(F)(F)Oc1ccc(N(CCCN2CCCCC2)c2ccc3cccc(Cl)c3n2)cc1 [Compound 30, 8-chloro-N-(3-(piperidin-1-yl)propyl)-N-(4-(trifluoromethoxy)phenyl)quinolin-2-amine] | 9.88 | – |
| FC(F)(F)c1ccnc(Oc2ccc3cccc(Cl)c3n2)c1 [Compound 46, 8-chloro-2-((4-(trifluoromethyl)pyridin-2-yl)oxy)quinoline] | 6.23 | – |
| FC(F)(F)c1ccnc(Nc2cc(NCCCN3CCCCC3)c3cccc(Cl)c3n2)c1 [Compound 9, 8-chloro-N^4-(3-(piperidin-1-yl)propyl)-N^2-(4-(trifluoromethyl)pyridin-2-yl)quinoline-2,4-diamine] | 112 | – |
| Maraviroc [reference compound] | – | effect on the overexpression of miR-124 in PBMCs (miR-124): none of the known antiretroviral (Maraviroc, Effavirenz, Darunavir or AZT) has any significant effect; Fold-change compared to DMSO treated cells (Relative quantification) Mean (miR-124): 0.73 |
| FC(F)(F)c1ccnc(Nc2ccc3c(OCCN4CCCCC4)ccc(Cl)c3n2)c1 [Compound 6] | 30.9 | – |
| Cc1cn([C@H]2C[C@H](N=[N+]=[N-])[C@@H](CO)O2)c(=O)[nH]c1=O [AZT, reference compound] | – | effect on the overexpression of miR-124 in PBMCs (miR-124): none of the known antiretroviral (Maraviroc, Effavirenz, Darunavir or AZT) has any significant effect; Fold-change compared to DMSO treated cells (Relative quantification) Mean (miR-124): 0.90 |
| FC(F)(F)c1ccnc(Nc2ccc3cccc(Cl)c3n2)c1 [Compound 12] | 16.3 | – |
| FC(F)(F)c1ccnc(Nc2ccc3c(OCCN4CCOCC4)ccc(Cl)c3n2)c1 [Compound 5] | 26.8 | – |
| Nc1ccc(Cl)c2nc(Nc3cc(C(F)(F)F)ccn3)ccc12 [Compound 7] | 7.54 | – |
